We go through 7 compounds from article PMC8732799 (Journal of Natural Medicines, 2021).

Data set [1] has as its system CYP2C8. As to the kind of experiment: CYP2C8 mRNA expression in human cryopreserved hepatocytes (quantitative PCR). Conditions: 24 h, 1, 3 and 10 µM.
Protocol: (§1) Plateable and interaction-qualified cryopreserved human hepatocytes (Lonza, Walkersville, MD, USA) were thawed in a hepatocyte thawing medium (Lonza) and then seeded at 5 × 10^4 cells per well in collagen-coated 96-well plates (Corning, Corning, NY, USA) with hepatocyte plating medium (Lonza). After 1 h of incubation with 5% CO2 under saturated humidity at 37 °C, the medium was replaced with fresh plating medium. After 4 h of seeding, the media were replaced with maintenance medium (Lonza) containing Matrigel (0.3 mg/ml).
(§2) After removing the medium containing Matrigel from the cells, the cells were treated with each test compound prepared in a maintenance medium (1, 3, and 10 µM). Rifampicin, a well-known CYP2C8 and CYP3A4 inducer, was used as a positive control and treated under the same conditions. […] To obtain the samples to evaluate mRNA levels, the cells were collected 24 h after drug treatment (n = 3 per test compound). […] The concentration of DMSO in the maintenance medium was 0.1%. A cell viability assay using CellTiter-Glo (Promega, Madison, WI, USA) was used to ensure the absence of cell toxicity during treatment with each compound.
RNA isolation and cDNA synthesis were carried out using the Superprep II Cell Lysis & RT Kit (Toyobo, Osaka, Japan) according to the manufacturer’s protocol. […] Data are expressed as fold-changes to the vehicle control.
Data set [2] deals with CYP2C8. The data set is described as follows: Metabolic activity of paclitaxel in human cryopreserved hepatocytes: 6α-hydroxypaclitaxel production. As to conditions: 72 h treatment at 1–10 µM, then paclitaxel 10 µM 60 min.
Protocol: as §1, §2
The target in data set [3] is T1, CYP2C8 (Homo sapiens, UniProt P10632).
T1 sequence (P10632 1-490): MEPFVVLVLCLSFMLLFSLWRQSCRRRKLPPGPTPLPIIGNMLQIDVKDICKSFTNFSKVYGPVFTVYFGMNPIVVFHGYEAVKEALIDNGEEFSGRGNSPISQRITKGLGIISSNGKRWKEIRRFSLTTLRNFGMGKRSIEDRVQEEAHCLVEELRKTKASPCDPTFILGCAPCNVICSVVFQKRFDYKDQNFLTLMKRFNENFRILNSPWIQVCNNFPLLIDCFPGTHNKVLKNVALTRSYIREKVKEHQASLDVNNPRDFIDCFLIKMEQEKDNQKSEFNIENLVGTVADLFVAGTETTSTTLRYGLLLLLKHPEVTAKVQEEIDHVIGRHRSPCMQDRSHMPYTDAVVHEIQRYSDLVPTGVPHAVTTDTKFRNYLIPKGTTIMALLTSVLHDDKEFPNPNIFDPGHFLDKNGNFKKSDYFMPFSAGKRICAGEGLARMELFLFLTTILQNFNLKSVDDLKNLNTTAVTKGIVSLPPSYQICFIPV
As to the kind of experiment: Inhibition of paclitaxel metabolism in human liver microsome fraction: 6α-hydroxypaclitaxel production. Conditions: human liver microsomes. A general note: Liver microsomes are a subcellular fraction often used to study metabolism.
Protocol: (§3) Then, 10 µl of 10 mM β-NADPH (Oriental Yeast Co., Ltd., Tokyo, Japan) was added, mixed, and incubated at 37 °C for 140 min. The reaction was stopped by adding 100 µl of ethanol containing 40 µM BHB as an internal standard into the reactant and mixing vigorously. After centrifugation (15,000 × g, 7 min), 10 µl of the supernatant was analyzed using HPLC–MS/MS (Quattro Premier XE, Waters, Milford, MA, USA). The mass spectrometer used an electrospray ionization source in the positive ion mode with multiple reaction monitoring. The analytical column was an Inertsil ODS-4 (2.1 mm i.d. × 100 mm, 3 µm) (GL Sciences Inc., Tokyo, Japan). The mobile phase was delivered using a linear gradient elution system consisting of 0.5% formic acid (A): acetonitrile containing 0.5% formic acid (B), at a flow rate of 0.2 ml/min, with the following gradient profile: 40% B (0 min), increasing from 40 to 70% (0–6 min), and 70% B (6–8 min).

Data set [4] has as its target CYP3A4 (Homo sapiens, UniProt P08684). As to the kind of experiment: Inhibition of paclitaxel metabolism in human liver microsome fraction: 3'-p-hydroxypaclitaxel production. As to conditions: human liver microsomes.
Protocol: as §3
Details of data set [5]: method as in PMID 30974202. As to conditions: rats, oral extract of processed Aconite root 1 g/kg as original crude drug; cited from earlier work.
Setting [6] is: any concentration from 0.050 to 50 µM.
Where [7] appears, read: human, pH 7.4, probe paclitaxel (6α-hydroxypaclitaxel formation).

Sequence of CYP3A4 (P08684 whole entry): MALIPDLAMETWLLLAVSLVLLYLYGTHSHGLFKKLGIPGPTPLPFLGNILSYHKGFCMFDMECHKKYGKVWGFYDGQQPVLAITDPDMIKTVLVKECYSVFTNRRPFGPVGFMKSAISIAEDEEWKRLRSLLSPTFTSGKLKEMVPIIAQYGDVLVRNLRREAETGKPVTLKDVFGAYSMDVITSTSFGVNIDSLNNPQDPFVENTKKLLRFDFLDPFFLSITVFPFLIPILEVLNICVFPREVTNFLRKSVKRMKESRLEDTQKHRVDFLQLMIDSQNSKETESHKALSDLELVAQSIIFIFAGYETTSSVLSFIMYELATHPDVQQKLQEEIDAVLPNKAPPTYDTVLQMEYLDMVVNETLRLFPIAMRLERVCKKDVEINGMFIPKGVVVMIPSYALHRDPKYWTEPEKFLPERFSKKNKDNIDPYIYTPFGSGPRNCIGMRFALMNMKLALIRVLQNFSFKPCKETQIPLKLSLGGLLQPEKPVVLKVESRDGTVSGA

As for `CO[C@H]1/C=C/O[C@@]2(C)Oc3c(C)c(O)c4c(O)c(c(/C=N/N5CCN(C)CC5)c(O)c4c3C2=O)NC(=O)/C(C)=C\C=C\[C@H](C)[C@H](O)[C@@H](C)[C@@H](O)[C@@H](C)[C@H](OC(C)=O)[C@@H]1C` [Rifampicin, rifampicin], the “effect on CYP2C8 mRNA expression” value in data set [1] is on record as “significantly induced”. Further, the “effect on production of 6α-hydroxypaclitaxel by human hepatocytes” value in data set [2] was “significantly induced”.

On to `OC[C@H]1O[C@@H](O[C@@H]2OC=C[C@H]3[C@H](O)[C@@H]4O[C@]4(CO)[C@@H]23)[C@H](O)[C@@H](O)[C@@H]1O` [catalpol], for which, in data set [3] (at 50 µM), the “effect on production of 6α-hydroxypaclitaxel” value is “significantly induced”.

Turning to `O=C(O)C1=CO[C@@H](O[C@@H]2O[C@H](CO)[C@@H](O)[C@H](O)[C@H]2O)[C@@H]2C(CO)=CC[C@H]12` [geniposidic acid], the “effect on production of 3'-p-hydroxypaclitaxel” value in data set [4] (at 50 µM) is “induced”. Further, in data set [3] (at 50 µM), the “effect on production of 6α-hydroxypaclitaxel” value was “significantly induced”.

For `COC(=O)C1=CO[C@@H](O[C@@H]2O[C@H](CO)[C@@H](O)[C@H](O)[C@H]2O)[C@@H]2[C@@H](C)[C@@H](O)C[C@H]12` [loganin], the “effect on production of 6α-hydroxypaclitaxel” value in data set [3] (at 50 µM) is on record as “significantly induced”.

As for `C[C@@]12C[C@@]3(O)O[C@@H](O1)[C@]1(COC(=O)c4ccccc4)[C@H]3C[C@@]12O[C@@H]1O[C@H](CO)[C@@H](O)[C@H](O)[C@H]1O` [paeoniflorin], the “effect on paclitaxel metabolism (3'-p-hydroxypaclitaxel production)” value in data set [4] (setting [6]) is on record as “did not affect”. Also, in data set [3] (setting [6]), the “effect on paclitaxel metabolism (6α-hydroxypaclitaxel production)” value is recorded as “did not affect”.

In data set [3] (setting [7]), `O=c1c(O)c(-c2ccc(O)c(O)c2)oc2cc(O)cc(O)c12` [quercetin] displayed an activity at 140 min, 0.3 µM of 49% and an activity at 140 min, 3 µM of 29%.

For the compound neoline, in data set [4] (at 5 µM), the “induction ratio of 3'-p-hydroxypaclitaxel production” value was “less than 10%”. In addition, the “effect on production of 3'-p-hydroxypaclitaxel” value was “significantly induced” in data set [4] (at 5.0 µM) and “significantly inhibited” in data set [4] (at 50 µM). In addition, in data set [5], the “maximum blood concentration of neoline” value is reported as “approximately 80 nM”. Moreover, the “induction ratio of 6α-hydroxypaclitaxel production” value in data set [3] (at 5 µM) is listed as “less than 10%”. The “effect on production of 6α-hydroxypaclitaxel” value in data set [3] (at 5.0 µM) is “significantly induced”.
